Experimental data published in US20240262832A1, “SMALL MOLECULE MODULATORS OF GLUCOCEREBROSIDASE ACTIVITY AND USES THEREOF” (Vanqua Bio, Inc., priority 2021, published 2024).

Biological target: T1, GCase (Homo sapiens, UniProt P04062)
T1 construct: endogenous in cells; host or cells: HeLa cells
T1 sequence (P04062 40-536): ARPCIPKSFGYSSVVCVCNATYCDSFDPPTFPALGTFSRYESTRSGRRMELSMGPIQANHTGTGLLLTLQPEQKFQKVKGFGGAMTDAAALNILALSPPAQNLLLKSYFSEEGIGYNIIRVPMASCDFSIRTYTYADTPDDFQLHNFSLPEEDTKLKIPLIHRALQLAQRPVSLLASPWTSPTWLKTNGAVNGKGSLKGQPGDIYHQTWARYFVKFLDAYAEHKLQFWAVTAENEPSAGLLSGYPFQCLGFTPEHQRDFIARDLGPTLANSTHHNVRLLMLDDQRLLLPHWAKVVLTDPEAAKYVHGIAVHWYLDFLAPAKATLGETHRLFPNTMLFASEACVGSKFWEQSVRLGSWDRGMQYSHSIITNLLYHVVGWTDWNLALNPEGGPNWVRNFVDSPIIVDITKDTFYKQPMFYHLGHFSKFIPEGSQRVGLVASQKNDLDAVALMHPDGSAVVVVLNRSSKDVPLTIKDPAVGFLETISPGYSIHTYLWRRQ
Experiment: activation of GCase in a live cell PFB assay in HELA cells
Assay type: cell-based

Compared with O=C(c1cncc(-c2nncs2)n1)N1C[C@@H]2[C@@H](COc3cccc(C(F)(F)F)n3)[C@@H]2C1 [Compound 226, (1R,5S,6S)-3-[6-(1,3,4-thiadiazol-2-yl)pyrazine-2-carbonyl]-6-({[6-(trifluoromethyl)pyridin-2-yl]oxy}methyl)-3-azabicyclo[3.1.0]hexane], C[C@H](Oc1cccnc1C(F)(F)F)[C@H]1CCCN(c2cncc(-c3nncs3)n2)C1 [Compound 45a, 2-(6-((S)-3-((S)-1-((2-(Trifluoromethyl)pyridin-3-yl)oxy)ethyl)piperidin-1-yl)pyrazin-2-yl)-1,3,4-thiadiazole] is lower in EC50: 10 to 50 µM for the first, less than 10 µM for the second.

First: O=C(c1cn(CC2CCCCC2)nn1)N1CCC(OCc2ccccc2)CC1 [Compound 419]
Second: COc1ccc(OCC2CCN(c3ncnc4cc[nH]c34)CC2)cc1 [Compound 427]
The EC50 of the first is higher: greater than 100 µM for the first, 10 to 50 µM for the second.

CO[C@@H]1CCN(c2cnc3cnn(CC(F)F)c3n2)C[C@@H]1COc1cccnc1C(F)(F)F [Compound 298a, 1-(2,2-Difluoroethyl)-6-((3R,4R)-4-methoxy-3-(((2-(trifluoromethyl)pyridin-3-yl)oxy)methyl)piperidin-1-yl)-1H-pyrazolo[3,4-b]pyrazine] showed an EC50 of 50 to 100 µM.
